Test system: animals with antibiotic-induced gut microbiota imbalance
Assay: Animals with antibiotic (ampicillin)-induced gut microbiota imbalance: cognitive improvement, hippocampus indicators
Type: in vivo, C57BL/6 male mice
Details: ampicillin (AP)-treated mice, 1×10^9 CFU/mouse orally once a day for 5 days; for IFN-γ/IL-10 / IL-10 / Interferon (IFN)-γ / TNF-a/IL-10 / TNF-α: hippocampus
Protocol: Hippocampus, colon, and spleen tissues were homogenized by adding 1 ml of RIPA buffer (Gibco) containing protease inhibitor cocktail and centrifuged at 4° C., 13000 rpm for 15 min to obtain supernatant. Indicators of this supernatant were measured using an ELISA kit (Ebioscience).
The Y-shaped maze measurement device is shaped like an alphabetical Y with three arms extending from it, each arm being 25 cm long, 14 cm high, 5 cm wide, and positioned at the same angle. At the end of one arm of the Y-shaped maze, the animal was placed with its head facing out and allowed to freely navigate the arm for 8 minutes. The animal's movements were recorded, and reported as arm entries when the animal entered the arm with its hind paw, and the animal's movement was represented by an alternation, which was defined as one alternation when the animal passed through the three arms in succession. The amount of spontaneous alternation behavior was expressed as a percentage between the actual number of alternations and the maximum possible number of alternations (i.e., the total number of […] minus 2).
The experiment was conducted in a box (40×40×40 cm) made so that the outside could not be seen from the inside. Two objects (A, A′) of the same shape and size were fixedly disposed in a box and the mouse was relocated to start from the center of the box. Then, the number of times the mouse made contact with the two objects was recorded for 10 minutes. After 24 hours, one of the two objects was replaced with a new object (A, B). Then, one original object and one new object were prepared, and the animal's exploration time was measured.
C57BL/6 male mice (5 weeks old, 19-21 g) were divided (6 mice in each group) and acclimatized to the laboratory for 1 week. To induce intestinal and brain diseases, the mice were orally administered with ampicillin (AP, 100 mg/kg, dissolved in physiological saline) for 3 days. Meanwhile, the normal group was orally administered with 0.1 ml of physiological saline. […] The day following the conclusion of sample administration, the experimental animals were sacrificed, and samples from the brain hippocampus, colon, and spleen were collected. In the Hippocampus, inflammatory indicators, such as IFN-γ, TNF-α, and IL-10, were measured using ELISA. In the colon, intestinal length and inflammatory indicators, such as IFN-γ, TNF-α, and IL-10, were measured. In the spleen, Th1 cells and Treg cells were measured by FACS (Fluorescence-Activated Cell Sorting), and in feces, endotoxin (LPS) and gut microbial communities were measured.

## Lactobacillus rhamnosus NK210
  Exoporation (%) (in NOR task): 76.25%
  Spontaneous alteration (%) (in Y-maze task): 73.01%
  IFN-γ/IL-10: 0.47
  IL-10: 48.89 pg/mg
  Interferon (IFN)-γ: 23.18 pg/mg
  TNF-a/IL-10: 0.26
  TNF-α: 13.37 pg/mg

## Bifidobacterium longum NK219
  Exoporation (%) (in NOR task): 83.21%
  Spontaneous alteration (%) (in Y-maze task): 70.54%
  IFN-γ/IL-10: 0.48
  IL-10: 50.29 pg/mg
  Interferon (IFN)-γ: 24.33 pg/mg
  TNF-a/IL-10: 0.28
  TNF-α: 12.43 pg/mg
